Experimental data reported in patent US9458133B2, “Isoquinolines as potassium ion channel inhibitors” (BRISTOL-MYERS SQUIBB COMPANY, priority 2013, dated 2016).
“And” between values parts separate entries of the source, which are not always exact repeats. Equal values may be shown once.

target: T1, human Kv 1.5 (Homo sapiens, UniProt P22460); experiment: Block of IKur current in patch clamped L-929 cells stably expressing human Kv1.5; type: cell-based; details: 0.3 μM; patch clamped mammalian L-929 cells expressing human Kv1.5 (IKur)
T1 construct: expressed in transfected cells; host or cells: mouse L-929 fibroblasts stably expressing human Kv1.5
Source text: Synders, D. J. et al., “A rapidly activating and slowly inactivating potassium channel cloned from human heart: functional analysis after stable mammalian cell culture expression”, J. Gen. Physiol., 101:513-543 (1993). […]

T1 sequence (P22460 whole entry): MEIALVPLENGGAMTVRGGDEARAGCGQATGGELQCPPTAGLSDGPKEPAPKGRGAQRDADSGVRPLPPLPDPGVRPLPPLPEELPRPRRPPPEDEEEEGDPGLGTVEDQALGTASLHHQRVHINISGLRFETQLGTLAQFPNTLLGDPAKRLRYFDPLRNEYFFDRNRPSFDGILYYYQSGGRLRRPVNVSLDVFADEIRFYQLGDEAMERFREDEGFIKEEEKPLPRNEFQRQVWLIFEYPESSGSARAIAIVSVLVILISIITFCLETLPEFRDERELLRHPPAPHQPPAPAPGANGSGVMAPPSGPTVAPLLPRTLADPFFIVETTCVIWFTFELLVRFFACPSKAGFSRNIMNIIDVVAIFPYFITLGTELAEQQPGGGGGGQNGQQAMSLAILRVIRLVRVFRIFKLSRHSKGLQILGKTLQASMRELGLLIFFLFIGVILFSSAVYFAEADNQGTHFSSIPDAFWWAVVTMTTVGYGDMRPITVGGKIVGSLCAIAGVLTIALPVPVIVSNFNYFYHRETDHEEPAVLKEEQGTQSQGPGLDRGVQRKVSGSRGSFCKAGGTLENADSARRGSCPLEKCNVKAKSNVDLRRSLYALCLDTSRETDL

KV1_5% Inh L929 @0.3 μM | SMILES
81.32% and 50.45% | NC(=O)c1cncc(-c2cc3cccc(-c4ccccc4)c3c(NCc3ccccn3)n2)c1 [Example 9, 5-(8-Phenyl-1-((pyridin-2-ylmethyl)amino)isoquinolin-3-yl)nicotinamide]

same assay, conditions: L929, 0.3 μM; patch clamped mammalian L-929 cells expressing human Kv1.5 (IKur); read-out: KV1_5% Inh L929 @0.3 μM

SMILES | inhibition at 0.3 µM
NS(=O)(=O)c1cncc(-c2cc3cccc(-c4ccccc4)c3c(NCc3ccccc3Cl)n2)c1 [Example 37, 5-(1-(2-chlorobenzylamino)-8-phenylisoquinolin-3-yl)pyridine-3-sulfonamide] | 34.2%
NS(=O)(=O)c1cncc(-c2c(Cl)nc(NCc3c(F)cccc3F)c3c(-c4ccccc4)cccc23)c1 [Example 27, 5-(3-chloro-1-(2,6-difluorobenzylamino)-8-phenylisoquinolin-4-yl)pyridine-3-sulfonamide] | 93.6%
NS(=O)(=O)c1cncc(-c2c(Cl)nc(NCC3CCOCC3)c3c(-c4ccccc4)cccc23)c1 [Example 29, 5-(3-chloro-8-phenyl-1-((tetrahydro-2H-pyran-4-yl)methylamino)isoquinolin-4-yl)pyridine-3-sulfonamide] | 88.4%
NS(=O)(=O)c1ccc(-c2cc3cccc(-c4ccccc4)c3c(NCc3ccccn3)n2)cc1 [Example 33, 4-(8-phenyl-1-(pyridin-2-ylmethylamino)isoquinolin-3-yl)benzenesulfonamide] | 73.4%
NC(=O)Nc1cncc(-c2cc3cccc(-c4ccccc4)c3c(NCc3ccccn3)n2)c1 [Example 4, 1-(5-(8-Phenyl-1-(pyridin-2-ylmethylamino)isoquinolin-3-yl)pyridin-3-yl)urea] | 88.7%
CC(Nc1nc(Cl)c(-c2cncc(S(N)(=O)=O)c2)c2cccc(-c3ccccc3)c12)c1ccccn1 (stereo not drawn) [Example 26, 5-(3-chloro-8-phenyl-1-(1-(pyridin-2-yl)ethylamino)isoquinolin-4-yl)pyridine-3-sulfonamide] | 98.8%
Cc1nc(NCc2ccccc2)c2c(-c3ccccc3)cccc2c1-c1cncc(S(N)(=O)=O)c1 [Example 14, 5-(1-(Benzylamino)-3-methyl-8-phenylisoquinolin-4-yl)pyridine-3-sulfonamide] | 93.2%
NS(=O)(=O)c1cncc(-c2cc3cccc(-c4ccccc4)c3c(NCc3ncccc3F)n2)c1 [Example 22, 5-(1-((3-fluoropyridin-2-yl)methylamino)-8-phenylisoquinolin-3-yl)pyridine-3-sulfonamide] | 94%
c1ccc(CNc2ncc(-c3cncc(-c4nn[nH]n4)c3)c3cccc(-c4ccccc4)c23)cc1 [Example 19, 4-(5-(2H-Tetrazol-5-yl)pyridin-3-yl)-N-benzyl-8-phenylisoquinolin-1-amine] | 90%
C1=C(c2cnc(NCc3ccccc3)c3c(-c4ccccc4)cccc23)CCOC1 [Example 28, N-benzyl-4-(3,6-dihydro-2H-pyran-4-yl)-8-phenylisoquinolin-1-amine] | 76.1%
NS(=O)(=O)c1cncc(-c2c(Cl)nc(NCc3ccccn3)c3c(-c4ccccc4)cccc23)c1 [Example 10, 5-(3-Chloro-8-phenyl-1-(pyridin-2-ylmethylamino)isoquinolin-4-yl)pyridine-3-sulfonamide] | 99%
CC(=O)Nc1ccccc1-c1cc2cccc(-c3ccccc3)c2c(NCc2ccccn2)n1 [Example 30, N-(2-(8-phenyl-1-(pyridin-2-ylmethylamino)isoquinolin-3-yl)phenyl)acetamide] | 51.3%
NC(=O)CS(=O)(=O)c1cccc(-c2cc3cccc(-c4ccccc4)c3c(NCc3ccccn3)n2)c1 [Example 7, 2-(3-(8-Phenyl-1-(pyridin-2-ylmethylamino)isoquinolin-3-yl)phenylsulfonyl)acetamide] | 34.8%
CC(C)CCNc1nc(-c2cncc(S(N)(=O)=O)c2)cc2cccc(-c3ccccc3)c12 [Example 25, 5-(1-(isopentylamino)-8-phenylisoquinolin-3-yl)pyridine-3-sulfonamide] | 53.2%
NS(=O)(=O)c1cncc(-c2cc3cccc(-c4ccccc4)c3c(NCc3ccccn3)n2)c1 [Example 1, 5-(8-Phenyl-1-(pyridin-2-ylmethylamino)isoquinolin-3-yl)pyridine-3-sulfonamide] | 95.1%
NC(=O)Nc1cccc(-c2cc3cccc(-c4ccccc4)c3c(NCc3ccccn3)n2)c1 [Example 38, 1-(3-(8-phenyl-1-(pyridin-2-ylmethylamino)isoquinolin-3-yl)phenyl)urea] | 90.8%
CC(=O)Nc1cncc(-c2cc3cccc(-c4ccccc4)c3c(NCc3ccccn3)n2)c1 [Example 3, N-(5-(8-Phenyl-1-(pyridin-2-ylmethylamino)isoquinolin-3-yl)pyridin-3-yl)acetamide] | 71.9%
Nc1cncc(-c2cc3cccc(-c4ccccc4)c3c(NCc3ccccn3)n2)c1 [Example 2, 3-(5-Aminopyridin-3-yl)-8-phenyl-N-(pyridin-2-ylmethyl)isoquinolin-1-amine] | 66.2%
NC(=O)CC(=O)Nc1cccc(-c2c(Cl)nc(NCc3ccccn3)c3c(-c4ccccc4)cccc23)c1 [Example 13, N1-(3-(3-Chloro-8-phenyl-1-(pyridin-2-ylmethylamino)isoquinolin-4-yl)phenyl)malonamide] | 97.7%
NS(=O)(=O)Nc1cncc(-c2cc3cccc(-c4ccccc4)c3c(NCc3ccccn3)n2)c1 [Example 5] | 75.6%

Next, values leading:

inhibition at 0.3 µM | SMILES
86.3% | NS(=O)(=O)Nc1ccccc1-c1cc2cccc(-c3ccccc3)c2c(NCc2ccccn2)n1 [Example 51]
98.6% | NC(=O)c1ccc(-c2c(Cl)nc(NCc3ccccn3)c3c(-c4ccccc4)cccc23)cc1 [Example 57, 4-(3-chloro-8-phenyl-1-(pyridin-2-ylmethylamino)isoquinolin-4-yl)benzamide]
53.2% | CS(=O)(=O)Nc1ccc(-c2cc3cccc(-c4ccccc4)c3c(NCc3ccccn3)n2)cn1 [Example 63, N-(5-(8-phenyl-1-(pyridin-2-ylmethylamino)isoquinolin-3-yl)pyridin-2-yl)methanesulfonamide]
98.3% | Nc1ccc(-c2c(Cl)nc(NCc3ccccn3)c3c(-c4ccccc4)cccc23)cc1 [Example 68, 4-(4-aminophenyl)-3-chloro-8-phenyl-N-(pyridin-2-ylmethyl)isoquinolin-1-amine]
96.9% | COc1ccc(-c2cc3cccc(-c4ccccc4)c3c(NCc3ccccn3)n2)cn1 [Example 67, 3-(6-methoxypyridin-3-yl)-8-phenyl-N-(pyridin-2-ylmethyl)isoquinolin-1-amine]
66.8% | N#Cc1cccc(-c2cc3cccc(-c4ccccc4)c3c(NCc3ccccn3)n2)c1 [Example 39, 3-(8-phenyl-1-(pyridin-2-ylmethylamino)isoquinolin-3-yl)benzonitrile]
85% | NS(=O)(=O)c1cncc(-c2cnc(NCC3CCCCO3)c3c(-c4ccccc4)cccc23)c1 (stereo not drawn) [Example 82, 5-(8-phenyl-1-((tetrahydro-2H-pyran-2-yl)methylamino)isoquinolin-4-yl)pyridine-3-sulfonamide]
98.4% | NS(=O)(=O)c1cccc(-c2c(Cl)nc(NCc3ccccn3)c3c(-c4ccccc4)cccc23)c1 [Example 84, 3-(3-chloro-8-phenyl-1-(pyridin-2-ylmethylamino)isoquinolin-4-yl)benzenesulfonamide]
50.5% | NS(=O)(=O)c1ccccc1-c1cc2cccc(-c3ccccc3)c2c(NCc2ccccn2)n1 [Example 65, 2-(8-phenyl-1-(pyridin-2-ylmethylamino)isoquinolin-3-yl)benzenesulfonamide]
98.4% | CC(=O)Nc1cncc(-c2c(Cl)nc(NCc3ccccn3)c3c(-c4ccccc4)cccc23)c1 [Example 46, N-(5-(3-chloro-8-phenyl-1-(pyridin-2-ylmethylamino)isoquinolin-4-yl)pyridin-3-yl)acetamide]
92.5% | CC(C)C(Nc1nc(Cl)c(-c2cncc(S(N)(=O)=O)c2)c2cccc(-c3ccccc3)c12)c1ccccn1 (stereo not drawn) [Example 80, 5-(3-chloro-1-(2-methyl-1-(pyridin-2-yl)propylamino)-8-phenylisoquinolin-4-yl)pyridine-3-sulfonamide]
19.3% | Clc1nc(NCc2ccccc2)c2c(-c3ccccc3)cccc2c1C1=CCOCC1 [Example 83, N-benzyl-3-chloro-4-(3,6-dihydro-2H-pyran-4-yl)-8-phenylisoquinolin-1-amine]
16.1% | NS(=O)(=O)c1cncc(-c2cc3cccc(-c4ccccc4)c3c(NCc3csc(-c4ccccc4)n3)n2)c1 [Example 72, 5-(8-phenyl-1-((2-phenylthiazol-4-yl)methylamino)isoquinolin-3-yl)pyridine-3-sulfonamide]
16.3% | NS(=O)(=O)c1cncc(-c2cc3cccc(-c4ccccc4)c3c(NCc3cccc(Cl)c3Cl)n2)c1 [Example 43, 5-(1-(2,3-dichlorobenzylamino)-8-phenylisoquinolin-3-yl)pyridine-3-sulfonamide]
92.3% | N#Cc1ccc(-c2cc3cccc(-c4ccccc4)c3c(NCc3ccccn3)n2)cc1 [Example 40, 4-(8-phenyl-1-(pyridin-2-ylmethylamino)isoquinolin-3-yl)benzonitrile]
60.3% | NC(=O)c1ccc(-c2cc3cccc(-c4ccccc4)c3c(NCc3ccccn3)n2)cc1 [Example 42, 4-(8-phenyl-1-(pyridin-2-ylmethylamino)isoquinolin-3-yl)benzamide]
91% | NS(=O)(=O)c1cccc(-c2c(Cl)nc(NCc3ccccc3)c3c(-c4ccccc4)cccc23)c1 [Example 78, 3-(1-(benzylamino)-3-chloro-8-phenylisoquinolin-4-yl)benzenesulfonamide]
95.1% | N#Cc1cccc(-c2c(Cl)nc(NCc3ccccn3)c3c(-c4ccccc4)cccc23)c1 [Example 61, 3-(3-chloro-8-phenyl-1-(pyridin-2-ylmethylamino)isoquinolin-4-yl)benzonitrile]
